# Measurements from patent publication US11389415B2, “Methods of regulating cannabinoid receptor activity-related disorders and diseases” (The United States of America as represented by the …, priority 2012, dated 2022).
# System: rat C6 glioma xenografts
# Assay: Gene expression profiling (microarray, GO term and PAGE gene set analysis) in rat C6 glioma xenografts
# Type: in vivo, mouse
# Conditions: MNF_Control
# Protocol: Analysis of gene expression in rat C6 glioma xenografts. Total RNA was isolated from rat C6 glioma xenografts harvested from vehicle and MNF-treated mice (n=3 per group, cohort 1). This analysis was repeated in a second cohort of animals (n=3 per group, cohort 2). Total cellular RNA was extracted using an RNeasy plus mini kit (QIAGEN, Valencia, Calif.), and its quality was assessed using an Agilent BioAnalyzer using RNA 6000 Nano Chips (Agilent Technologies, Santa Clara, Calif.). Transcriptional profiling was determined using Illumina Sentrix BeadChips (Illumina, San Diego, Calif.). Total RNA was used to generate biotin-labeled cRNA with the Illumina TotalPrep RNA Amplification Kit. In short, 0.5 ug of total RNA was first converted into single-stranded cDNA with reverse transcriptase using an oligo-dT primer containing the T7 RNA polymerase promoter site and then copied to produce double-stranded cDNA molecules. The double-stranded cDNA was cleaned and concentrated with the supplied columns and used in an overnight in-vitro transcription reaction where single-stranded RNA (cRNA) was generated incorporating biotin-16-UTP. A total of 0.75 μg of biotin-labeled cRNA was hybridized at 58° C. for 16 hours to Illumina's Sentrix Rat Ref-12 Expression BeadChips. Each BeadChip has ˜22,000 well-annotated RefSeq transcripts with approximately 30-fold redundancy. The arrays were washed, blocked and the labeled cRNA was detected by staining with streptavidin-Cy3. Hybridized arrays were scanned using an Illumina BeadStation 500× Genetic Analysis Systems scanner and the image data extracted using Illumina's GenomeStudio software, version 1.6.1. For statistical analysis, the expression data were filtered to include only probes with a consistent signal on each chip and an Illumina detecton p value <0.02.
# Correlation analysis, sample clustering analysis and principal component analysis was performed to identify/exclude any possible outliers. The resulting dataset was next analyzed with DIANE 6.0, a spreadsheet-based microarray analysis program using value statistics for Z-Score reliability below 0.05; and mean background-corrected signal intensity greater than zero.
# Gene set enrichment analysis use gene expression values or gene expression change values for all of the genes in the microarray. Parametric analysis of gene set enrichment (PAGE) was used using the WEB-PAGE GSA tool for gene set analysis. Gene Sets include the MSIG database, Gene Ontology Database, GAD human disease and mouse phenotype gene sets were used to explore functional level changes. Gene-gene interaction was also analyzed using the INGENUITY® Pathway Analysis (IPA) system (INGENUITY® Systems).
smiles,measurement,setting,value
"COc1ccc(C[C@@H](C)NC[C@H](O)c2cc(O)cc(O)c2)c2ccccc12 [(R,R′)-MNF, (R,R′)-4′-methoxy-1-naphthylfenoterol]","Z score, ADIP_DIFF_CLUSTERS",cohort 1,−4.6054
same,"Z score, ATRBRCAPATHWAY",cohort 1,−1.8815
same,"Z score, BRCA_PROGNOSIS_NEG",cohort 1,−3.2974
same,"Z score, BRENTANI_REPAIR",cohort 1,−3.8568
same,"Z score, CANCER_UNDIFFERENTIATED_META_UP",cohort 1,−4.8288
same,"Z score, CELL_CYCLE",cohort 1,−5.0187
same,"Z score, CELL_CYCLE_KEGG",cohort 1,−4.1925
same,"Z score, CMV_IE86_UP",cohort 1,−6.1497
same,"Z score, CROONQUEST_IL6_STARVE_UP",cohort 1,−6.5055
same,"Z score, CROONQUIST_IL6_RAS_DN",cohort 1,−6.7147
same,"Z score, DAC_FIBRO_DN",cohort 1,−4.4476
same,"Z score, DNA_REPLICATION_REACTOME",cohort 1,−3.8683
same,"Z score, DOX_RESIST_GASTRIC_UP",cohort 1,−5.8557
same,"Z score, E2F1_DNA_UP",cohort 1,−3.6781
same,"Z score, GAY_YY1_DN",cohort 1,−7.6370
same,"Z score, GOLDRATH_HP",cohort 1,−2.4433
same,"Z score, HDACI_COLON_BUT12 HRS_UP",cohort 1,5.3212
same,"Z score, HDACI_COLON_BUT16HRS_UP",cohort 1,3.6723
same,"Z score, HDACI_COLON_BUT24HRS_UP",cohort 1,3.0864
same,"Z score, HDACI_COLON_TSABUT_UP",cohort 1,4.1465
same,"Z score, HIPPOCAMPUS_DEVELOPMENT_POSTNATAL",cohort 1,3.6731
same,"Z score, HOFFMANN_BIVSBII_BI_TABLE2",cohort 1,−5.1273
same,"Z score, HYPOPHYSECTOMY_RAT_DN",cohort 1,3.6187
same,"Z score, IDX_TSA_UP_CLUSTER3",cohort 1,−6.1057
same,"Z score, IRITANI_ADPROX_LYMPH",cohort 1,−5.1468
same,"Z score, KAMMINGA_EZH2_TARGETS",cohort 1,−5.3211
same,"Z score, KENNY_WNT_UP",cohort 1,−4.0135
same,"Z score, LAMB_CYCLIN_D3_GLOCUS",cohort 1,−2.8637
same,"Z score, LEE_TCELLS2_UP",cohort 1,−4.1051
same,"Z score, LEE_TCELLS3_UP",cohort 1,−7.2409
same,"Z score, LI_FETAL_VS_WT_KIDNEY_DN",cohort 1,−5.4447
same,"Z score, MANALO_HYPOXIA_DN",cohort 1,−3.2723
same,"Z score, MIDDLEAGE_DN",cohort 1,−3.6696
same,"Z score, MOREAUX_TACI_HI_IN_PPC_UP",cohort 1,−2.9881
same,"Z score, MOREAUX_TACI_HI_VS_LOW_DN",cohort 1,−4.3721
same,"Z score, OLDAGE_DN",cohort 1,−4.5391
same,"Z score, P21_P53_ANY_DN",cohort 1,−5.0275
same,"Z score, PEART_HISTONE_DN",cohort 1,−2.5055
same,"Z score, PODI_KO_UP",cohort 1,−3.9363
same,"Z score, PRMT5_KD_UP",cohort 1,−9.3903
same,"Z score, REN_E2F1_TARGETS",cohort 1,−2.9150
same,"Z score, SASAKI_ATL_UP",cohort 1,−5.0963
same,"Z score, SASAKI_TCELL_LYMPHOMA_VS_CD4_UP",cohort 1,−5.0963
same,"Z score, SERUM_FIBROBLAST_CELLCYCLE",cohort 1,−7.2985
same,"Z score, SHEPARD_BMYB_MORPHOLINO_DN",cohort 1,−4.3350
same,"Z score, SHEPARD_CRASH_AND_BURN_MUT_VS_WT_DN",cohort 1,−3.9994
same,"Z score, SHEPARD_GENES_COMMON_BW_CB_MO",cohort 1,−4.0300
same,"Z score, STEMCELL_NEURAL_UP",cohort 1,−6.0983
same,"Z score, TARTE_MATURE_PC",cohort 1,3.6636
same,"Z score, TARTE_PLASMA_BLASTIC",cohort 1,−4.8905
same,"Z score, VERNELL_PRB_CLSTR1",cohort 1,−3.4691
same,"Z score, YU_CMYC_UP",cohort 1,−4.4689
same,"Z score, ZHAN_MM_CD138_PR_VS_REST",cohort 1,−6.1404
same,"Z score, ADIP_DIFF_CLUSTERS",cohort 2,−6.8850
same,"Z score, ATRBRCAPATHWAY",cohort 2,−2.9977
same,"Z score, BRCA_PROGNOSIS_NEG",cohort 2,−5.4682
same,"Z score, BRENTANI_REPAIR",cohort 2,−2.9453
same,"Z score, CANCER_UNDIFFERENTIATED_META_UP",cohort 2,−6.2847
same,"Z score, CELL_CYCLE",cohort 2,−7.4222
same,"Z score, CELL_CYCLE_KEGG",cohort 2,−7.0955
same,"Z score, CMV_IE86_UP",cohort 2,−6.5954
same,"Z score, CROONQUEST_IL6_STARVE_UP",cohort 2,−9.0059
same,"Z score, CROONQUIST_IL6_RAS_DN",cohort 2,−7.7040
same,"Z score, DAC_FIBRO_DN",cohort 2,−4.9523
same,"Z score, DNA_REPLICATION_REACTOME",cohort 2,−6.5700
same,"Z score, DOX_RESIST_GASTRIC_UP",cohort 2,−8.6145
same,"Z score, E2F1_DNA_UP",cohort 2,−4.4885
same,"Z score, GAY_YY1_DN",cohort 2,−4.7456
same,"Z score, GOLDRATH_HP",cohort 2,−2.2875
same,"Z score, HDACI_COLON_BUT12 HRS_UP",cohort 2,3.6676
same,"Z score, HDACI_COLON_BUT16HRS_UP",cohort 2,3.4287
same,"Z score, HDACI_COLON_BUT24HRS_UP",cohort 2,3.3154
same,"Z score, HDACI_COLON_TSABUT_UP",cohort 2,3.4480
same,"Z score, HIPPOCAMPUS_DEVELOPMENT_POSTNATAL",cohort 2,10.3312
same,"Z score, HOFFMANN_BIVSBII_BI_TABLE2",cohort 2,−7.7114
same,"Z score, HYPOPHYSECTOMY_RAT_DN",cohort 2,3.9294
same,"Z score, IDX_TSA_UP_CLUSTER3",cohort 2,−10.1593
same,"Z score, IRITANI_ADPROX_LYMPH",cohort 2,−3.3728
same,"Z score, KAMMINGA_EZH2_TARGETS",cohort 2,−7.2448
same,"Z score, KENNY_WNT_UP",cohort 2,−5.5586
same,"Z score, LAMB_CYCLIN_D3_GLOCUS",cohort 2,−4.3054
same,"Z score, LEE_TCELLS2_UP",cohort 2,−5.6671
same,"Z score, LEE_TCELLS3_UP",cohort 2,−8.0339
same,"Z score, LI_FETAL_VS_WT_KIDNEY_DN",cohort 2,−9.1715
same,"Z score, MANALO_HYPOXIA_DN",cohort 2,−6.1956
same,"Z score, MIDDLEAGE_DN",cohort 2,−7.7600
same,"Z score, MOREAUX_TACI_HI_IN_PPC_UP",cohort 2,−3.8456
same,"Z score, MOREAUX_TACI_HI_VS_LOW_DN",cohort 2,−3.2936
same,"Z score, OLDAGE_DN",cohort 2,−7.1043
same,"Z score, P21_P53_ANY_DN",cohort 2,−7.4300
same,"Z score, PEART_HISTONE_DN",cohort 2,−5.2170
same,"Z score, PODI_KO_UP",cohort 2,−4.3565
same,"Z score, PRMT5_KD_UP",cohort 2,−5.4620
same,"Z score, REN_E2F1_TARGETS",cohort 2,−3.5319
same,"Z score, SASAKI_ATL_UP",cohort 2,−5.5299
same,"Z score, SASAKI_TCELL_LYMPHOMA_VS_CD4_UP",cohort 2,−5.5299
same,"Z score, SERUM_FIBROBLAST_CELLCYCLE",cohort 2,−10.6997
same,"Z score, SHEPARD_BMYB_MORPHOLINO_DN",cohort 2,−4.7947
same,"Z score, SHEPARD_CRASH_AND_BURN_MUT_VS_WT_DN",cohort 2,−4.0540
